Assay results: ChEMBL document CHEMBL4312011, “Synthesis and biological evaluation of triterpenoid thiazoles derived from betulonic acid, dihydrobetulonic acid, and ursonic acid” (Eur J Med Chem, 2020)
Values after ≈ are worked out from the molar mass of the structure shown. Active and inactive are the calls of the source. No cut-off for these calls is given here.

Columns and labels:
[1] = Chemical stability of compound in PBS buffer assessed as parent compound remaining at 2 uM at pH 7.4 and 37 degC incubated for 15 mins by RF-MS analysis; type: physicochemical; settings: read-out: Stability
CCRF-CEM [2] = assay: Induction of apoptosis in human CCRF-CEM cells assessed as increase in BAX expression at 5 times IC50 concentration measured after 24 hrs by Western blot analysis; type: functional, cell-based
MRC5 = assay: Cytotoxicity against human MRC5 cells incubated for 72 hrs by MTS assay; type: cell-based; settings: MRC5, 72 h
U2OS = assay: Cytotoxicity against human U2OS cells incubated for 72 hrs by MTS assay; type: functional, cell-based
HCT-116 [3] = assay: Cytotoxicity against p53 knockout human HCT116 cells incubated for 72 hrs by MTS assay; type: functional, cell-based; settings: HCT-116, 72 h
[4] = Stability in human plasma assessed as parent compound remaining at 2 uM incubated for 15 mins by RF-MS analysis; type: ADME, cell-free; settings: read-out: Stability
[5] = Cytotoxicity against human CEM-DNR-bulk cells incubated for 72 hrs by MTS assay; type: functional, cell-based
[6] = Microsomal stability in human liver microsomes assessed as parent compound remaining at 2 uM incubated for 60 mins by RF-MS analysis; type: ADME, Microsome; settings: read-out: Stability
CCRF-CEM [7] = assay: Induction of apoptosis in human CCRF-CEM cells assessed as viable cells at 5 times IC50 concentration measured after 24 hrs by AnnexinV-FITC/propidium iodide staining based flow cytometry analysis (reference value: 97 %); type: functional
CCRF-CEM [8] = assay: Induction of apoptosis in human CCRF-CEM cells assessed as decrease in Bcl-2 expression at 5 times IC50 concentration measured after 24 hrs by Western blot analysis; type: functional, cell-based
HCT-116 [9] = assay: Cytotoxicity against human HCT116 cells incubated for 72 hrs by MTS assay; type: functional, cell-based; settings: HCT-116, 72 h
[10] = Stability in human plasma assessed as parent compound remaining at 2 uM incubated for 120 mins by RF-MS analysis; type: ADME, cell-free; settings: read-out: Stability
A549 = assay: Cytotoxicity against human A549 cells incubated for 72 hrs by MTS assay; type: functional, cell-based; settings: A549, 72 h
[11] = Microsomal stability in human liver microsomes assessed as parent compound remaining at 2 uM incubated for 30 mins by RF-MS analysis; type: ADME, Microsome; settings: read-out: Stability
[12] = Protein binding in human plasma at 10 uM measured after 4 hrs by rapid equilibrium dialysis; type: ADME, cell-free; settings: read-out: PPB (converted)
CCRF-CEM [13] = assay: Induction of apoptosis in human CCRF-CEM cells assessed as activation of procaspase 8 at 5 times IC50 concentration measured after 24 hrs by Western blot analysis; type: functional, cell-based
[14] = Cytotoxicity against human K562-TAX cells incubated for 72 hrs by MTS assay; type: functional, cell-based
CCRF-CEM [15] = assay: Cell cycle arrest in human CCRF-CEM cells assessed as decrease in proportion of cells in S phase at 5 times IC50 measured after 24 hrs by propidium iodide/RNase staining based flow cytometry analysis; type: functional
BJ = assay: Cytotoxicity against human BJ cells incubated for 72 hrs by MTS assay; type: cell-based
CCRF-CEM [16] = assay: Induction of apoptosis in human CCRF-CEM cells assessed as late apoptotic cells at 5 times IC50 concentration measured after 24 hrs by AnnexinV-FITC/propidium iodide staining based flow cytometry analysis (reference value: 0.1 %); type: functional
[17] = Stability in human plasma assessed as parent compound remaining at 2 uM incubated for 60 mins by RF-MS analysis; type: ADME, cell-free; settings: read-out: Stability
[18] = Chemical stability of compound in PBS buffer assessed as parent compound remaining at 2 uM at pH 7.4 and 37 degC incubated for 60 mins by RF-MS analysis; type: physicochemical; settings: read-out: Stability
CCRF-CEM [19] = assay: Induction of mitochondrial membrane depolarization in human CCRF-CEM cells at 5 times IC50 measured after 24 hrs by JC-1 staining based flow cytometry analysis (reference value: 8.4 %); type: functional
[20] = Microsomal stability in human liver microsomes assessed as parent compound remaining at 2 uM incubated for 15 mins by RF-MS analysis; type: ADME, Microsome; settings: read-out: Stability
[21] = Stability in human plasma assessed as parent compound remaining at 2 uM incubated for 30 mins by RF-MS analysis; type: ADME, cell-free; settings: read-out: Stability
CCRF-CEM [22] = assay: Induction of apoptosis in human CCRF-CEM cells assessed as necrotic cells at 5 times IC50 concentration measured after 24 hrs by AnnexinV-FITC/propidium iodide staining based flow cytometry analysis (reference value: 0.1 %); type: functional
[23] = Chemical stability of compound in PBS buffer assessed as parent compound remaining at 2 uM at pH 7.4 and 37 degC incubated for 120 mins by RF-MS analysis; type: physicochemical; settings: read-out: Stability
CCRF-CEM [24] = assay: Cytotoxicity against human CCRF-CEM cells incubated for 72 hrs by MTS assay; type: functional, cell-based
[25] = Chemical stability of compound in PBS buffer assessed as parent compound remaining at 2 uM at pH 7.4 and 37 degC incubated for 30 mins by RF-MS analysis; type: physicochemical; settings: read-out: Stability
CCRF-CEM [26] = assay: Induction of apoptosis in human CCRF-CEM cells assessed as early apoptotic cells at 5 times IC50 concentration measured after 24 hrs by AnnexinV-FITC/propidium iodide staining based flow cytometry analysis (reference value: 2.8 %); type: functional
[27] = Permeability of compound in PBS buffer assessed as permeability coefficient at pH 7.4 incubated for 18 hrs by PAMPA based RF-MS analysis; type: ADME; settings: pH 7.4, 18 h
CCRF-CEM [28] = assay: Induction of apoptosis in human CCRF-CEM cells assessed as increase in caspase 3/7 activity using Ac-DEVD-AMC as substrate at 5 times IC50 concentration measured after 24 hrs by fluorescence assay; type: functional, cell-based
K562 = assay: Cytotoxicity against human K562 cells incubated for 72 hrs by MTS assay; type: functional, cell-based; settings: K562, 72 h
CCRF-CEM [29] = assay: Cell cycle arrest in human CCRF-CEM cells assessed as increase in G2/M phase accumulation at 5 times IC50 measured after 24 hrs by propidium iodide/RNase staining based flow cytometry analysis; type: functional
[30] = Solubility of compound in 0.5 % DMSO in water by HPLC-MS analysis; type: physicochemical
[31] = Solubility of compound in 10 % DMSO in water by HPLC-MS analysis; type: physicochemical
[32] = Solubility of compound in 5 % DMSO in water by HPLC-MS analysis; type: physicochemical

CC(C)[C@@H]1CC[C@]2(C(=O)O)CC[C@]3(C)[C@H](CC[C@@H]4[C@@]5(C)Cc6sc(N)nc6C(C)(C)[C@@H]5CC[C@]43C)[C@@H]12
remaining at 0.25 h, 2 µM [1]: 99.3%
Activity (CCRF-CEM [2]): Active
IC50 (MRC5): > 50 µM
IC50 (U2OS): 42.9 µM
IC50 (HCT-116 [3]): 47.2 µM
remaining at 0.25 h, 2 µM [4]: 99.3%
IC50 [5]: 27 µM
remaining at 1 h, 2 µM [6]: 90.8%
Activity (CCRF-CEM [7]): 96.4%
Activity (CCRF-CEM [8]): Active
IC50 (HCT-116 [9]): 32.4 µM
remaining at 2 h, 2 µM [10]: 99.9%
IC50 (A549): 44.5 µM
remaining at 0.5 h, 2 µM [11]: 93.4%
fraction unbound at 4 h, 10 µM [12]: 0.015
Activity (CCRF-CEM [13]): Active
IC50 [14]: 22.8 µM
Activity (CCRF-CEM [15]): Active
IC50 (BJ): > 50 µM
Activity (CCRF-CEM [16]): 0.4%
remaining at 1 h, 2 µM [17]: 99.9%
remaining at 1 h, 2 µM [18]: 80.4%
Activity (CCRF-CEM [19]): 16.7%
remaining at 0.25 h, 2 µM [20]: 97.7%
remaining at 0.5 h, 2 µM [21]: 99.6%
Activity (CCRF-CEM [22]): 0.1%
remaining at 2 h, 2 µM [23]: 76.3%
IC50 (CCRF-CEM [24]): 4.5 µM
remaining at 0.5 h, 2 µM [25]: 96.1%
Activity (CCRF-CEM [26]): 3.1%
log(permeability) [27]: -5.34
Activity (CCRF-CEM [28]): Active
IC50 (K562): 43.8 µM
Activity (CCRF-CEM [29]): Active

CC1(C)CC[C@]2(C(=O)O)CC[C@]3(C)C(=CC[C@@H]4[C@@]5(C)Cc6sc(N)nc6C(C)(C)[C@@H]5CC[C@]43C)[C@@H]2C1
remaining at 0.25 h, 2 µM [1]: 91.2%
solubility [30]: 27 µM (≈ 13.8 µg/mL)
solubility [31]: 91 µM (≈ 46.5 µg/mL)
Activity (CCRF-CEM [2]): Active
IC50 (MRC5): > 50 µM
IC50 (U2OS): 28.8 µM
IC50 (HCT-116 [3]): 33.3 µM
remaining at 0.25 h, 2 µM [4]: 99.4%
IC50 [5]: 19.8 µM
remaining at 1 h, 2 µM [6]: 87.1%
Activity (CCRF-CEM [7]): 87.4%
Activity (CCRF-CEM [8]): Active
IC50 (HCT-116 [9]): 31 µM
remaining at 2 h, 2 µM [10]: 99.1%
IC50 (A549): 47.7 µM
remaining at 0.5 h, 2 µM [11]: 90%
fraction unbound at 4 h, 10 µM [12]: 0.011
Activity (CCRF-CEM [13]): Active
solubility [32]: 45 µM (≈ 23 µg/mL)
IC50 [14]: 18.9 µM
Activity (CCRF-CEM [15]): Active
IC50 (BJ): > 50 µM
Activity (CCRF-CEM [16]): 0.5%
remaining at 1 h, 2 µM [17]: 99.4%
remaining at 1 h, 2 µM [18]: 74.8%
Activity (CCRF-CEM [19]): 23.4%
remaining at 0.25 h, 2 µM [20]: 96.8%
remaining at 0.5 h, 2 µM [21]: 99.2%
Activity (CCRF-CEM [22]): 0.1%
remaining at 2 h, 2 µM [23]: 74.9%
IC50 (CCRF-CEM [24]): 5.2 µM
remaining at 0.5 h, 2 µM [25]: 77%
Activity (CCRF-CEM [26]): 12%
log(permeability) [27]: -7.16
Activity (CCRF-CEM [28]): Active
IC50 (K562): > 50 µM
Activity (CCRF-CEM [29]): Active

C[C@H]1[C@H](C)CC[C@]2(C(=O)O)CC[C@]3(C)C(=CC[C@@H]4[C@@]5(C)CC(SC#N)C(=O)C(C)(C)[C@@H]5CC[C@]43C)[C@H]12 (some centres not stated)
remaining at 0.25 h, 2 µM [1]: 90.3%
IC50 (MRC5): 39.8 µM
IC50 (U2OS): 33.1 µM
IC50 (HCT-116 [3]): 32.3 µM
remaining at 0.25 h, 2 µM [4]: 99.2%
IC50 [5]: 28.2 µM
remaining at 1 h, 2 µM [6]: 14.9%
IC50 (HCT-116 [9]): 32.1 µM
remaining at 2 h, 2 µM [10]: 36.9%
IC50 (A549): 42.5 µM
remaining at 0.5 h, 2 µM [11]: 54.9%
IC50 [14]: 29 µM
IC50 (BJ): > 50 µM
remaining at 1 h, 2 µM [17]: 77.4%
remaining at 1 h, 2 µM [18]: 37.1%
remaining at 0.25 h, 2 µM [20]: 61%
remaining at 0.5 h, 2 µM [21]: 100%
remaining at 2 h, 2 µM [23]: 15.3%
IC50 (CCRF-CEM [24]): 4.7 µM
remaining at 0.5 h, 2 µM [25]: 49.3%
IC50 (K562): 34.7 µM
